US8129371B2, “Thienopyrimidine and pyrazolopyrimidine compounds and their use as mTOR kinase and PI3 kinase inhibitors” (Wyeth LLC, priority 2007, dated 2012)
Where two headings read alike, the source gives them in different places.

Key:
[1] = biological target: T1, Human mTOR (FLAG-TOR) (Homo sapiens, UniProt P42345); assay: Human mTOR kinase assay with purified enzyme, DELFIA format; assay type: biochemical
T1 construct: FLAG
Description: Enzymes are first diluted in kinase assay buffer (10 mM HEPES (pH 7.4), 50 mM NaCl, 50 mM β-glycerophosphate, 10 mM MnCl2, 0.5 mM DTT, 0.25 mM microcystin LR, and 100 mg/mL BSA). To each well, 12 μL of the diluted enzyme is mixed briefly with 0.5 μL test inhibitor or control vehicle dimethylsulfoxide (DMSO). […] The reaction plate is incubated for 2 hours (linear at 1-6 hours) at room temperature with gentle shaking and then terminated by adding 25 μL Stop buffer (20 mM HEPES (pH 7.4), 20 mM EDTA, 20 mM EGTA). […] The DELFIA Assay buffer and Enhancement solution can be purchased from PerkinElmer. 45 μL of the terminated kinase reaction mixture is transferred to a MaxiSorp plate (Nunc) containing 55 μL PBS. The His6-S6K is allowed to attach for 2 hours after which the wells are aspirated and washed once with PBS. 100 μL of DELFIA Assay buffer with 40 ng/mL Eu—P(T389)-S6K antibody is added. The antibody binding is continued for 1 hour with gentle agitation. The wells are then aspirated and washed 4 times with PBS containing 0.05% Tween-20 (PBST). 100 μL of DELFIA Enhancement solution is added to each well and the plates are read in a PerkinElmer Victor model plate reader. Data obtained is used to calculate enzymatic activity and enzyme inhibition by potential inhibitors.

[2] = biological target: T2, PI3K (Homo sapiens, UniProt P42336); assay: Fluorescence polarization assay for PI3K; assay type: biochemical; settings: read-out: PI3 Kinase α IC50
T2 construct: PI3 Kinase α IC50; other: PI3 Kinase α; other: PI3 Kinase α isoform, fluorescence polarization
Description: (§1) This assay is used to determine the IC50 of compounds of the present invention as it identifies inhibitors of PI3 kinase by measuring inhibition.
(§2) The assay is run by placing 5 μL of diluted enzyme per well, then 5 μL of diluted compound (or 9.5 μL enzyme then 0.5 μL compound in DMSO) is added and mixed. Then, 10 μL substrate is added to start the reaction. The samples are incubated 30-60 minutes, then the reaction is stopped by adding 20 μL stop/detector mix. PI3K is diluted with reaction buffer (e.g., 5 μL or 7.5 μL PI3K into 620 μL reaction buffer), and 5 μL of diluted enzyme is used per well. 5 μL reaction buffer or drug diluted in buffer (e.g., 4 μL/100 so final DMSO is 1% in reaction) is added to each. Pipetting up and down mixes the samples. Alternatively, the enzyme can be diluted to 1215 μL. In this case 9.8 μL is added per well and 0.2 μL compound is added in DMSO. To prepare 1 mL of substrate solution, 955 μL reaction buffer, 40 μL PIP2, and 2.5 μL ATP are mixed. 10 μL of substrate is added to each well to start the reaction.
(§3) Stop/detector mix is prepared by mixing 4 μL Red detector and 1.6 μL or 2.0 μL GST-GRP with 1 mL Stop buffer, which results in 10 nM probe and 70 nM GST-GRP). 20 μL of the stop/detector mix is added to each well to stop the reaction. The plates are read after 30-90 minutes keeping the red probe solutions dark. For the zero time point, stop/detector mix is added to the enzyme just before adding substrate. For an extra control, stop/detector mix is added to buffer (no enzyme) and substrate or to just buffer (no substrate). […] Plates are read on machines with filters for Tamra. The units are mP with no enzyme controls reading app 190-220 mP units. Fully active enzyme reduces fluorescence polarization down to 70-100 mP after 30 minutes.

[3] = biological target: T3, PI3K (Homo sapiens, UniProt P48736); assay: Fluorescence polarization assay for PI3K; assay type: biochemical; settings: read-out: PI3 Kinase γ IC50
T3 construct: PI3 Kinase γ IC50; other: PI3 Kinase γ; other: PI3 Kinase γ isoform, fluorescence polarization
Description: as §1, §2, §3

[4] = system: prostate line LNCap; assay: In vitro cell culture growth assay (MTS), LNCap; assay type: cell-based; settings: Homo sapiens, LNCaP, 72 h, LNCap cells, three days after drug treatment
Description: (§4) Human tumor cell lines used include prostate lines LNCap and PC3MM2, breast lines MDA468, MCF7, renal line HTB44 (A498), colon line HCT116, and ovarian line OVCAR3. Cells were plated in 96-well culture plates. One day following plating, the inhibitors were added to cells. Three days after drug treatment, viable cell densities were determined by metabolic conversion (by viable cells) of the dye MTS, a well-established cell proliferation assay. The assays were performed using an assay kit purchased from Promega Corp. (Madison, Wis.) following the protocol supplied with the kit. The MTS assay results were read in a 96-well plate reader by measuring absorbance at 490 nm. The effect of each treatment was calculated as percent of control growth relative to the vehicle-treated cells grown in the same culture plate.

[5] = system: breast line MDA468; assay: In vitro cell culture growth assay (MTS), MDA468; assay type: cell-based; settings: Homo sapiens, 72 h, MDA468 cells, three days after drug treatment
Description: as §4

[6] = purified human mTOR enzyme, DELFIA format
[7] = PI3 Kinase α isoform, fluorescence polarization
[8] = PI3 Kinase γ isoform, fluorescence polarization

T2 sequence (P42336 whole entry, canonical isoform): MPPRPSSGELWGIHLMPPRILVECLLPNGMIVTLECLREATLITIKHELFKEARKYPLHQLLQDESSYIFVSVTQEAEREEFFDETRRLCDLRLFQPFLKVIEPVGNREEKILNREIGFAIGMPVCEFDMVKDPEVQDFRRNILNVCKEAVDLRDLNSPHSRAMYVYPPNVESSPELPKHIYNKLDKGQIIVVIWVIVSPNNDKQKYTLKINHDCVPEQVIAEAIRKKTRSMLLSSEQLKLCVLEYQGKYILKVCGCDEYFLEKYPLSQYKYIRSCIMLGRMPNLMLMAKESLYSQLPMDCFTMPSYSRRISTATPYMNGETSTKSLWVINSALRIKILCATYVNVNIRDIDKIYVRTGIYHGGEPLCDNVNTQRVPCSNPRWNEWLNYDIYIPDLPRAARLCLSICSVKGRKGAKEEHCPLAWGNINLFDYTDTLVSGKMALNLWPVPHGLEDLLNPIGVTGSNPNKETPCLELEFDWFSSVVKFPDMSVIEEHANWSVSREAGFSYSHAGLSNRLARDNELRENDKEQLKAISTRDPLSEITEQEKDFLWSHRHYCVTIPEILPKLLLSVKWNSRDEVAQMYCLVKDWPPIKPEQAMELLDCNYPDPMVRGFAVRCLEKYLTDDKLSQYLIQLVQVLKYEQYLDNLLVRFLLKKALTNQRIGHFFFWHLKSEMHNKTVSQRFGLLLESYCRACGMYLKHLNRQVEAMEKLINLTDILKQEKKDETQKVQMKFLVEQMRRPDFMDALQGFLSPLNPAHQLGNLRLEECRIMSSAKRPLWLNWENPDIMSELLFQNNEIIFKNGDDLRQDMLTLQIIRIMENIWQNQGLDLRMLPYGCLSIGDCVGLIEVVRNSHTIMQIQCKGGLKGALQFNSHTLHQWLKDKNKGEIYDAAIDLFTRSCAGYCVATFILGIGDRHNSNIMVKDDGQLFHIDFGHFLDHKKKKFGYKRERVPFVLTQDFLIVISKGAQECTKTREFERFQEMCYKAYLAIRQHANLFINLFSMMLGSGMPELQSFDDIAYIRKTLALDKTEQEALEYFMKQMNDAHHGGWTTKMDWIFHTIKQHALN
T3 sequence (P48736 whole entry, canonical isoform): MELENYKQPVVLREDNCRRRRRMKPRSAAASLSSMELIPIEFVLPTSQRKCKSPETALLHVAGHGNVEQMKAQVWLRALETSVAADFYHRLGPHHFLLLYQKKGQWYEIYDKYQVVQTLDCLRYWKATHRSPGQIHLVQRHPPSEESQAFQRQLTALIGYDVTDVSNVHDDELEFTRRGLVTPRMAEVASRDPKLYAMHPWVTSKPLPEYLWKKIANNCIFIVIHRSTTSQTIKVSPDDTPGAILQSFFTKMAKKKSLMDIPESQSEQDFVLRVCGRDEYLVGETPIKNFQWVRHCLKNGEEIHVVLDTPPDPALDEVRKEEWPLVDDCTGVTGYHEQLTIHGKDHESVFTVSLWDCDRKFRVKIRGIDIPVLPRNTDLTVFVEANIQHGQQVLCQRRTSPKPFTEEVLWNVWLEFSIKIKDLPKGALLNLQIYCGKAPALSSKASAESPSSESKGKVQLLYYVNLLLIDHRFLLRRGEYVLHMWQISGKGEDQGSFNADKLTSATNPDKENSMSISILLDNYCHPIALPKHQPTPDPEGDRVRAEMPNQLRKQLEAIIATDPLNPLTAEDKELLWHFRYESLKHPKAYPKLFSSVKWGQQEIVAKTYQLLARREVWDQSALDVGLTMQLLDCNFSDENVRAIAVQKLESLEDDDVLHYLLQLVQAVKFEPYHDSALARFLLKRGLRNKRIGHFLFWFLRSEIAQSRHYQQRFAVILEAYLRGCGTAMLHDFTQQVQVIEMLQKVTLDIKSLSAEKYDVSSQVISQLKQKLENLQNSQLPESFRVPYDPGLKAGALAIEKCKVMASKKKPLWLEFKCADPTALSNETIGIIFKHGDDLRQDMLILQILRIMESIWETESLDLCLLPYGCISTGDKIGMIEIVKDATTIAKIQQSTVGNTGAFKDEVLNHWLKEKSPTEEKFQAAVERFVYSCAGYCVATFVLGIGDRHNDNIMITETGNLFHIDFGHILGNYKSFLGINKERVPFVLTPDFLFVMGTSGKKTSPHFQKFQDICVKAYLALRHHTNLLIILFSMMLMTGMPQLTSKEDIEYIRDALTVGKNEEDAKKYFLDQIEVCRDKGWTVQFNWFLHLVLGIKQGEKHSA

| IC50 [1] | IC50 ([2]; PI3 Kinase α) | IC50 ([3]; PI3 Kinase γ) | IC50 [4] | IC50 [1, 6] | IC50 [2, 7] | IC50 [3, 8] | Compound | IC50 [5] |
| --- | --- | --- | --- | --- | --- | --- | --- | --- |
| – | – | – | 1 nM | 0.33 nM | 705 nM | 0.404 µM | CNC(=O)Nc1ccc(-c2nc(N3CC4CCC(C3)O4)c3cnn([C@H]4CC[C@@H](OC)CC4)c3n2)cc1 (relative stereo) [Example 387, 1-{4-[1-(cis-4-methoxycyclohexyl)-4-(8-oxa-3-azabicyclo[3.2.1]oct-3-yl)-1H-pyrazolo[3,4-d]pyrimidin-6-yl]phenyl}-3-methylurea] | 19 nM |
| – | – | – | < 1 nM | 0.335 nM | 145 nM | 1.79 µM | CO[C@H]1CC[C@H](n2ncc3c(N4CC5CCC(C4)O5)nc(-c4ccc(NC(=O)Nc5ccc(N6CCN(C)CC6)cc5)cc4)nc32)CC1 (relative stereo) [Example 396, 1-{4-[1-(trans-4-methoxycyclohexyl)-4-(8-oxa-3-azabicyclo[3.2.1]oct-3-yl)-1H-pyrazolo[3,4-d]pyrimidin-6-yl]phenyl}-3-[4-(4-methylpiperazin-1-yl)phenyl]urea] | 4 nM |
| – | – | – | 1 nM | 0.52 nM | 1150 nM | 5.65 µM | CO[C@H]1CC[C@@H](n2ncc3c(N4CC5CCC(C4)O5)nc(-c4ccc(NC(=O)NC5CC5)cc4)nc32)CC1 (relative stereo) [Example 398, 1-cyclopropyl-3-{4-[1-(cis-4-methoxycyclohexyl)-4-(8-oxa-3-azabicyclo[3.2.1]oct-3-yl)-1H-pyrazolo[3,4-d]pyrimidin-6-yl]phenyl}urea] | 20 nM |
| – | – | – | 1 nM | 0.52 nM | 1500 nM | 6.6 µM | CO[C@H]1CC[C@H](n2ncc3c(N4CC5CCC(C4)O5)nc(-c4ccc(NC(=O)NC5CC5)cc4)nc32)CC1 (relative stereo) [Example 399, 1-cyclopropyl-3-{4-[1-(trans-4-methoxycyclohexyl)-4-(8-oxa-3-azabicyclo[3.2.1]oct-3-yl)-1H-pyrazolo[3,4-d]pyrimidin-6-yl]phenyl}urea] | 41 nM |
| – | – | – | 2 nM | 0.41 nM | 2970 nM | > 10 µM | O=C(Nc1ccc(-c2nc(N3CC4CCC(C3)O4)c3cnn([C@H]4CC[C@@H](O)CC4)c3n2)cc1)NC1CC1 (relative stereo) [Example 402, 1-cyclopropyl-3-{4-[1-(cis-4-hydroxycyclohexyl)-4-(8-oxa-3-azabicyclo[3.2.1]oct-3-yl)-1H-pyrazolo[3,4-d]pyrimidin-6-yl]phenyl}urea] | 40 nM |
| – | – | – | – | 0.56 nM | 12 nM | 0.286 µM | CS(=O)(=O)N1CCN(Cc2cc3nc(-c4ccc(NC(=O)Nc5cccnc5)cc4)nc(N4CC5CCC(C4)O5)c3s2)CC1 [Example 433, 1-{4-[6-{[4-(methylsulfonyl)piperazin-1-yl]methyl}-4-(8-oxa-3-azabicyclo[3.2.1]oct-3-yl)thieno[3,2-d]pyrimidin-2-yl]phenyl}-3-pyridin-3-ylurea] | 60 nM |

Second part, the compound before the results:

| Compound | IC50 [1] | IC50 ([2]; PI3 Kinase α) | IC50 ([3]; PI3 Kinase γ) | IC50 [4] | IC50 [1, 6] | IC50 [2, 7] | IC50 [3, 8] | IC50 [5] |
| --- | --- | --- | --- | --- | --- | --- | --- | --- |
| CCn1ncc2c(N3CC4CCC(C3)O4)nc(-c3ccc(NC(=O)N[C@H]4CC[C@@H](N)CC4)cc3)nc21 (relative stereo) [Example 229, 1-(cis-4-aminocyclohexyl)-3-{4-[1-ethyl-4-(8-oxa-3-azabicyclo[3.2.1]oct-3-yl)-1H-pyrazolo[3,4-d]pyrimidin-6-yl]phenyl}urea] | 245 nM | 2850 nM | > 10 µM | 4900 nM | – | – | – | 4000 nM |
| CCn1ncc2c(N3CC4CCC(C3)O4)nc(-c3ccc(NC(=O)N[C@H]4CC[C@H](N)CC4)cc3)nc21 (relative stereo) [Example 230, 1-(trans-4-aminocyclohexyl)-3-{4-[1-ethyl-4-(8-oxa-3-azabicyclo[3.2.1]oct-3-yl)-1H-pyrazolo[3,4-d]pyrimidin-6-yl]phenyl}urea] | 15.5 nM | 2890 nM | > 10 µM | 1300 nM | – | – | – | 1500 nM |
| CNC(=O)Nc1ccc(-c2nc(N3CC4CCC(C3)O4)c3cnn([C@H]4CC[C@H](O)CC4)c3n2)cc1 (relative stereo) [Example 380, 1-{4-[1-(trans-4-hydroxycyclohexyl)-4-(8-oxa-3-azabicyclo[3.2.1]oct-3-yl)-1H-pyrazolo[3,4-d]pyrimidin-6-yl]phenyl}-3-methylurea] | – | – | – | 20 nM | 0.245 nM | 882 nM | > 10 µM | 70 nM |
| CNC(=O)Nc1ccc(-c2nc(N3CC4CCC(C3)O4)c3cnn([C@H]4CC[C@@H](O)CC4)c3n2)cc1 (relative stereo) [Example 381, 1-{4-[1-(cis-4-hydroxycyclohexyl)-4-(8-oxa-3-azabicyclo[3.2.1]oct-3-yl)-1H-pyrazolo[3,4-d]pyrimidin-6-yl]phenyl}-3-methylurea] | – | – | – | 20 nM | 0.3 nM | 227 nM | > 10 µM | 51 nM |
| CNC(=O)Nc1ccc(-c2nc(N3CC4CCC(C3)O4)c3cnn([C@H]4CC[C@H](OC)CC4)c3n2)cc1 (relative stereo) [Example 386, 1-{4-[1-(trans-4-methoxycyclohexyl)-4-(8-oxa-3-azabicyclo[3.2.1]oct-3-yl)-1H-pyrazolo[3,4-d]pyrimidin-6-yl]phenyl}-3-methylurea] | – | – | – | 2 nM | 0.375 nM | 1170 nM | 7.44 µM | 37 nM |
| COC(=O)N1CCC(n2ncc3c(N4CC5CCC(C4)O5)nc(-c4ccc(NC(=O)NC5CC5)cc4)nc32)CC1 [Example 12, methyl 4-[6-{4-[(cyclopropylcarbamoyl)amino]phenyl}-4-(8-oxa-3-azabicyclo[3.2.1]oct-3-yl)-1H-pyrazolo[3,4-d]pyrimidin-1-yl]piperidine-1-carboxylate] | 0.52 nM | – | > 10 µM | 23 nM | – | – | – | 300 nM |
| Nc1ccc(-c2nc(N3CC4CCC(C3)O4)c3cnn(CC(F)(F)F)c3n2)cc1 [Example 374, 4-[4-(8-oxa-3-azabicyclo[3.2.1]oct-3-yl)-1-(2,2,2-trifluoroethyl)-1H-pyrazolo[3,4-d]pyrimidin-6-yl]aniline] | – | – | – | 1000 nM | 57 nM | – | – | 5500 nM |
| CNC(=O)Nc1ccc(-c2nc(N3C4COCC3C(O)C4)c3cnn(CC(F)(F)F)c3n2)cc1 (stereo not shown) [Example 390, 1-{4-[4-(6-hydroxy-3-oxa-8-azabicyclo[3.2.1]oct-8-yl)-1-(2,2,2-trifluoroethyl)-1H-pyrazolo[3,4-d]pyrimidin-6-yl]phenyl}-3-methylurea] | – | – | – | 12000 nM | 540 nM | – | – | 10000 nM |
